Biological target: T1, NleB1 (Escherichia coli, UniProt Q8XBX8)
T1 construct: GST-EHEC-NleB1 in pET42a (GST/His tagged), expressed in E. coli BL21 (DE3), nickel purified; some tag cleavage noted
Details: inhibitor; for % NleB1 inhibition (µM compound) / 10: 10 µM; for % NleB1 inhibition (µM compound) / 20: 20 µM; for % NleB1 inhibition (µM compound) / 40: 40 µM; for % NleB1 inhibition (µM compound) / 80: 80 µM; for % NleB1 inhibition (µM compound) / 160: 160 µM

Structure (SMILES) | % NleB1 inhibition (µM compound) / 10 | % NleB1 inhibition (µM compound) / 20 | % NleB1 inhibition (µM compound) / 40 | % NleB1 inhibition (µM compound) / 80 | % NleB1 inhibition (µM compound) / 160
O=c1cc(-c2ccccc2Cl)oc2c(NS(=O)(=O)c3cc(Cl)cc(Cl)c3O)ccc(O)c12 [KUC100066N] | 43.0% | 71.1% | 84.8% | 96.0% | 96.8%
COc1cc(C(C)=O)ccc1OCc1cn(CC(=O)c2ccc(O)cc2)nn1 [KUC104076N] | 32.0% | 44.9% | 45.1% | 61.1% | 75.5%
COc1ccc(OCc2cn(CC(=O)c3ccc(O)cc3)nn2)cc1 [KUC104109N] | 35.4% | 43.6% | 53.9% | 67.3% | 82.9%
CCCCCCC(=O)N1C/C=C\C(c2ccc(OC)cc2)N(Cc2ccc(F)cc2)C(=O)[C@@H]1Cc1ccccc1 (stereo partly shown) [KUC101608N] | 15.6% | 17.3% | 23.2% | 30.3% | 32.5%
CC(C)CC1C(=O)N(Cc2cn(CCC3OCCCO3)nn2)CCS(=O)(=O)N1Cc1ccc(-c2ccc(F)nc2)cc1 (stereo not shown) [KUC105151N] | 0.6% | 15.1% | 31.9% | 50.8% | 53.0%
COC(=O)[C@H](C(C)C)N1Cc2nnn(Cc3ccccc3)c2-c2ccccc2S1(=O)=O [KUC110604N] | 4.8% | 15.1% | 17.9% | 21.1% | 17.9%
C[C@@H]1NC(=O)O[C@H]1c1ccco1 [KUC103195N] | 23.8% | 25.6% | 28.1% | 33.5% | 23.9%
O=C(Oc1ccc([N+](=O)[O-])cc1)O[C@H]1CC[C@@]23CCCN2C(=O)CCC[C@H]3[C@H]1Cc1ccccc1 [KUC112275N] | 2.6% | 5.6% | 11.0% | 24.2% | 34.9%
CCCCCCCCCCCCN1[C@@H](CC(=O)O)c2cc(C(F)(F)F)ccc2S1(=O)=O [KUC101994N] | 40.6% | 48.0% | 60.1% | 80.4% | 94.3%
CCCCCC(=O)N1C[C@H](n2cc(COC(=O)c3ccccc3)nn2)[C@@H](O)C[C@@H]1c1ccc(Cl)cc1 [KUC105040N] | 9.1% | 14.5% | 18.9% | 40.4% | 50.7%
O=C1CS(=O)(=O)N(Cc2cccc(F)c2)c2ccc(Br)cc21 [KUC103319N] | 32.5% | 37.2% | 49.0% | 68.8% | 81.7%
O=C(c1ccc(F)cc1)N1CCCC2(CC(c3cccc(Cl)c3)=CO2)C1 (stereo not shown) [KUC111570N] | 3.2% | 3.8% | 5.2% | 24.2% | 42.6%
CCC(=O)c1ccc(OCc2cn(CC(=O)c3ccc(O)cc3)nn2)cc1 [KUC104108N] | 21.0% | 35.3% | 49.4% | 67.7% | 88.0%
O=S1(=O)CC(N2CCN(Cc3ccccc3F)CC2)CN1Cc1cn(Cc2cccc(Cl)c2)nn1 (stereo not shown) [KUC108236N] | 13.5% | 26.7% | 13.1% | 12.7% | 18.4%
CN(C)CCN1CCN(C2CN(Cc3cn(Cc4ccc(F)cc4)nn3)S(=O)(=O)C2)CC1 (stereo not shown) [KUC108117N] | 5.6% | 23.7% | 25.1% | 21.8% | 21.8%
CCC[C@H]1[C@@H](OC(=O)NCc2ccc(OC)cc2)CC[C@@]23CCCN2C(=O)CCC[C@@H]13 [KUC112136N] | 15.7% | 22.0% | 20.8% | 28.5% | 30.5%

Structure (SMILES) | % NleB1 inhibition (µM compound) / 10 | % NleB1 inhibition (µM compound) / 20 | % NleB1 inhibition (µM compound) / 40 | % NleB1 inhibition (µM compound) / 80 | % NleB1 inhibition (µM compound) / 160
O=Cc1cccc(OCc2cn(CC(=O)c3ccc(O)cc3)nn2)c1 [KUC104114N] | 31.8% | 42.3% | 57.2% | 76.5% | 92.0%
CCCCCCCCN1[C@@H](CC(=O)OC)c2cc(F)ccc2S1(=O)=O [KUC101907N] | 23.0% | 22.1% | 22.4% | 29.9% | 42.2%
C[C@H](c1ccccc1)N1C[C@@H](COCc2ccccc2)Oc2cc(N3CC[C@@H](O)C3)ccc2S1(=O)=O [KUC108511N] | 33.8% | 33.0% | 29.9% | 49.8% | 63.7%
Cc1ccc2c(c1)C1CS(=O)(=O)N(C3CCCC3)C(=O)N1C2 (stereo not shown) [KUC109525N] | 26.3% | 31.5% | 20.9% | 19.5% | 29.3%
COc1ccc2cc([C@H](C)C(=O)OCc3cn(CC(=O)c4ccc(O)cc4)nn3)ccc2c1 [KUC104115N] | 40.2% | 44.0% | 48.2% | 61.4% | 78.6%
Cc1ccc([C@H]2CC[C@]3(CCC(=O)N3CCOC(=O)Nc3cccc(C#N)c3)CC2)cc1 [KUC111012N] | 17.3% | 25.1% | 22.4% | 20.7% | 20.5%
O=C1CCN(S(=O)(=O)c2ccccc2)CCN1CCOCc1ccc(Cl)cc1 [KUC100988N] | 31.9% | 14.5% | 26.3% | 28.3% | 36.0%
C=CCN1CC[C@@H](O)C(=C)S1(=O)=O [KUC103094N] | 19.8% | 23.8% | 19.2% | 18.2% | 18.0%
O=C1CCC[C@@H]2Cc3nc4ccc(O)cc4cc3[C@@H]3CCN1[C@H]23 [KUC103038N] | 26.7% | 35.2% | 34.4% | 47.9% | 76.1%
O=S1(=O)CCOC[C@H](c2ccccc2)N1Cc1ccc(Cl)c(Cl)c1 [KUC102739N] | 16.3% | 16.2% | 25.3% | 35.0% | 45.5%
COCOCCn1cc(CN2CCS(=O)(=O)N(Cc3ccc(-c4ccc(OC)nc4)cc3)C(C(C)C)C2=O)nn1 (stereo not shown) [KUC105133N] | 30.4% | 40.4% | 45.5% | 62.2% | 75.8%
Cc1cccc(C)c1OCc1cn(CC(=O)c2ccc(O)cc2)nn1 [KUC104090N] | 36.8% | 44.9% | 53.2% | 69.2% | 85.8%
O=C1CN(Cc2ccccc2)S(=O)(=O)c2ccccc21 [KUC101184N] | 2.9% | 18.5% | 23.8% | 33.3% | 44.7%
COc1ccc(C(CCN2CCOCC2)c2c(OC)cc(OC)c3c2OC(=O)CC3c2ccc(OC)cc2)cc1 (stereo not shown) [KUC101459N] | 14.9% | 26.2% | 9.4% | 18.8% | 44.1%
COc1ccc(C2CC(O)(c3ccccc3)Oc3c(C)ccc(C)c32)cc1 (stereo not shown) [KUC101437N] | 10.8% | 13.9% | 23.3% | 39.1% | 57.3%
O=C(O)c1cc(-c2ccc(-c3c(-c4ccco4)noc3-c3ccccc3)cc2)nc2ccccc12 [KUC102644N] | 50.1% | 58.4% | 75.0% | 89.4% | 97.2%

From paper PMC6305410, “High-Throughput Screening for Bacterial Glycosyltransferase Inhibitors” (Frontiers in Cellular and Infection Microbiology, 2018)
